# Values quoted from earlier work, collected in patent US20250134147A1, “METHODS AND COMPOSITIONS FOR IMPROVED SUGAR-LIKE TASTE” (ALMENDRA (THAILAND) LTD., priority 2021, published 2025).
# Where two headings read alike, the source gives them in different places.
# Legend:
# [1] = comparison among steviol glycosides
# [2] = for sweetness potency, times more potent than sucrose: sensory evaluations, Crammer and Ikan 1986; for sweetness potency, times higher than sucrose: relative to sucrose, Tanaka 1987 / Phillips 1989
# [3] = Kinghorn 2002
Compound,taste quality / sensory attributes [1],"sweetness potency, times higher than sucrose [2]",also measured
"C=C1C[C@@]23CC[C@H]4[C@@](C)(CCC[C@@]4(C)C(=O)O[C@@H]4O[C@H](CO)[C@@H](O)[C@H](O)[C@H]4O)[C@@H]2CC[C@]1(O[C@@H]1O[C@H](CO)[C@@H](O)[C@H](O[C@@H]2O[C@H](CO)[C@@H](O)[C@H](O)[C@H]2O)[C@H]1O[C@@H]1O[C@H](CO)[C@@H](O)[C@H](O)[C@H]1O)C3 [Rebaudioside A, (3R,4S,5S,6R)-3,4,5-trihydroxy-6-(hydroxymethyl)tetrahydro-2H-pyran-2-yl(4R,4αS,11αR,11βS)-10-(((2R,3R,5R,6R)-5-hydroxy-6-(hydroxymethyl)-3,4-bis(((2S,3R,4S,5S,6R)-3,4,5-trihydroxy-6-(hydroxymethyl)tetrahydro-2H-pyran-2-yl)oxy)tetrahydro-2H-pyran-2-yl)oxy)-4,11β-dimethyl-8-methylenetetradecahydro-6α,9-methanocyclohepta[a]naphthalene-4-carboxylate]","the least astringent, the least bitter, and the least persistent aftertaste",,"taste quality / sensory attributes ([1]; listed as rebaudioside A): clearly surpasses stevioside and rebaudioside B; sweetness potency, times more potent than sucrose [2]: 350-450 times"
C=C1C[C@@]23CC[C@H]4[C@@](C)(CCC[C@@]4(C)C(=O)O[C@@H]4O[C@H](CO)[C@@H](O)[C@H](O)[C@H]4O)[C@@H]2CC[C@]1(O[C@@H]1O[C@H](CO)[C@@H](O)[C@H](O)[C@H]1O)C3 [rubusoside],significantly inferior to that of stevioside,,
"C=C1C[C@@]23CC[C@H]4[C@@](C)(CCC[C@@]4(C)C(=O)O)[C@@H]2CC[C@]1(O[C@@H]1O[C@H](CO)[C@@H](O)[C@H](O[C@@H]2O[C@H](CO)[C@@H](O)[C@H](O)[C@H]2O)[C@H]1O[C@@H]1O[C@H](CO)[C@@H](O)[C@H](O)[C@H]1O)C3 [Rebaudioside B, (4R,4αS,6αR,9S,11αR,11βS)-9-(((2S,3R,5R,6R)-5-hydroxy-6-(hydroxymethyl)-4-(((2S,3R,4S,5S,6R)-3,4,5-trihydroxy-6-(hydroxymethyl)tetrahydro-2H-pyran-2-yl)oxy)-3-(((3R,4S,5S,6R)-3,4,5-trihydroxy-6-(hydroxymethyl)tetrahydro-2H-pyran-2-yl)oxy)tetrahydro-2H-pyran-2-yl)oxy)-4,11β-dimethyl-8-methylenetetradecahydro-6α,9-methanocyclohepta[a]naphthalene-4-carboxylic acid]",,,"water solubility [3]: about 0.1%; sweetness potency, times more potent than sucrose [2]: 300-350 times"
C=C1C[C@@]23CC[C@H]4[C@@](C)(CCC[C@@]4(C)C(=O)O[C@@H]4O[C@H](CO)[C@@H](O)[C@H](O)[C@H]4O)[C@@H]2CC[C@]1(O[C@@H]1O[C@H](CO)[C@@H](O)[C@H](O)[C@H]1O[C@@H]1O[C@H](CO)[C@@H](O)[C@H](O)[C@H]1O)C3 [Stevioside],,110-270 times,
C=C1C[C@@]23CC[C@H]4[C@@](C)(CCC[C@@]4(C)C(=O)O)[C@@H]2CC[C@]1(O[C@@H]1O[C@H](CO)[C@@H](O)[C@H](O)[C@H]1O[C@@H]1O[C@H](CO)[C@@H](O)[C@H](O)[C@H]1O)C3 [Steviolbioside],significantly inferior to that of stevioside,,
C=C1C[C@@]23CC[C@H]4[C@@](C)(CCC[C@@]4(C)C(=O)O[C@@H]4O[C@H](CO)[C@@H](O)[C@H](O)[C@H]4O)[C@@H]2CC[C@]1(O[C@@H]1O[C@H](CO)[C@@H](O)[C@H](O)[C@H]1O[C@@H]1O[C@@H](C)[C@H](O)[C@@H](O)[C@H]1O)C3 [Dulcoside A],,30 times,
C=C1C[C@@]23CCC4[C@@](C)(CCC[C@@]4(C)C(=O)OC4O[C@H](CO)[C@@H](O)[C@H](O)[C@H]4O)C2CC[C@]1(O[C@@H]1O[C@H](CO)[C@@H](O)[C@H](O[C@@H]2O[C@H](CO)[C@@H](O)[C@H](O)[C@H]2O)[C@H]1O[C@H]1O[C@H](C)[C@@H](O)[C@H](O)[C@@H]1O)C3 (some centres unmarked) [Rebaudioside C],,40-60 times,
C=C1C[C@@]23CC[C@H]4[C@@](C)(CCC[C@@]4(C)C(=O)O[C@@H]4O[C@H](CO)[C@@H](O)[C@H](O)[C@H]4O[C@@H]4O[C@H](CO)[C@@H](O)[C@H](O)[C@H]4O)[C@@H]2CC[C@]1(O[C@@H]1O[C@H](CO)[C@@H](O)[C@H](O[C@@H]2O[C@H](CO)[C@@H](O)[C@H](O)[C@H]2O)[C@H]1O[C@@H]1O[C@H](CO)[C@@H](O)[C@H](O)[C@H]1O)C3 [Rebaudioside D],very desirable taste profile,,
